Legend:
PfA-M17 = molecular target: T1, PfA-M17 (Plasmodium falciparum, UniProt Q8IL11); assay: Dose-response aminopeptidase assay, Ki via Dixon plots, PfA-M17; assay type: biochemical; conditions: Dixon plot; substrate 5 and 10 μM
T1 construct: made in house; host or cells: Escherichia coli
T1 sequence (Q8IL11 84-605 limits assumed): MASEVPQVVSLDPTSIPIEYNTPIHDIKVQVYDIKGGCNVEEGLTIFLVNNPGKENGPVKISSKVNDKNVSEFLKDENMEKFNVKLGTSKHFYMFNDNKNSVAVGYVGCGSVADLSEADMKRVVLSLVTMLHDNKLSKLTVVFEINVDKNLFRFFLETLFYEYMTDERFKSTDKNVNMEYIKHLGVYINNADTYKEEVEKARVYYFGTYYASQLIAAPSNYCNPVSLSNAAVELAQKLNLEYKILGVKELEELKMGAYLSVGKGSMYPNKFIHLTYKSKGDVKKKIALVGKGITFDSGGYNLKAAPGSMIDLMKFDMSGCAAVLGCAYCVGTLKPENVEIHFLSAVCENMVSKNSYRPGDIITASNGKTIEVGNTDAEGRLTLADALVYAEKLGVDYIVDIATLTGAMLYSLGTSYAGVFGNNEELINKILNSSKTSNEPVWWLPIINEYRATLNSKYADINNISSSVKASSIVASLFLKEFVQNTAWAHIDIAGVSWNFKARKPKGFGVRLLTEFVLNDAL
Text: (§1) The expression and purification of PfA-M1 and PfA-M17 in Escherichia coli employed a two-step purification process of Ni-NTA-agarose column, followed by size exclusion chromatography on a Superdex 200 16/60 using an AKTAxpress high throughput chromatography system (http://proteinexpress.med.monash.edu.au/index.htm), as previously described. Compounds were purchased from Ambinter (France). Purity (90% or higher) of these compounds was confirmed by vendors. Aminopeptidase activity and K i values for both enzymes were determined as already described.
(§2) The top 12 hits identified in the virtual screen were evaluated for their ability to inhibit both PfA-M1 and PfA-M17 in vitro. We initially tested the total aminopeptidase activity (as reported by the fluorigenic substrate L-leucyl-7-amido-4-methylcoumarin) in the presence of 1 mM compound (Fig 3). In this screen, the “no compound” control was considered 100% activity and bestatin was included as an indicator/control for inhibition. From the results obtained, only compounds 4 (ZINC ID: 25108749) and 12 (ZINC ID: 4090432) were able to inhibit the activity of the enzymes to > 50%. […] The two inhibitory compounds were further analyzed to identify their effects on the individual aminopeptidases. To do this, we performed dose-response assays for each inhibitor with each enzyme, and then determined a K i via Dixon plots (Fig 4). […] Compound 4 was a weaker inhibitor of both enzymes with K i’s in the micromolar range (K i = 30.0 μM for PfA-M1 and 0.7 μM for PfA-M17; Fig 4).
(§3) Fig 4 Dixon plots of 1/V (y axis) versus inhibitor concentration (x axis) for PfA-M1 (top panel) and PfA-M17 (bottom panel). For PfA-M1, substrate concentrations were 20 μM (blue) and 40 μM (red); inhibitor concentration in μM. For PfA-M17, substrate concentrations were 5 μM (magenta) and 10 μM (green); inhibitor concentration in μM or nM as indicated. The point of intersection (-K i) is indicated as a dotted line. (A) PfA-M1 and compound 4. (B) PfA-M1 and compound 12. (C) PfA-M17 and compound 4. (D) PfA-M17 and compound 12

PfA-M1 = molecular target: T2, PfA-M1 (Plasmodium falciparum, UniProt O96935); assay: Dose-response aminopeptidase assay, Ki via Dixon plots, PfA-M1; assay type: biochemical; conditions: Dixon plot; substrate 20 and 40 μM
T2 construct: made in house; host or cells: Escherichia coli
T2 sequence (O96935 1-1085): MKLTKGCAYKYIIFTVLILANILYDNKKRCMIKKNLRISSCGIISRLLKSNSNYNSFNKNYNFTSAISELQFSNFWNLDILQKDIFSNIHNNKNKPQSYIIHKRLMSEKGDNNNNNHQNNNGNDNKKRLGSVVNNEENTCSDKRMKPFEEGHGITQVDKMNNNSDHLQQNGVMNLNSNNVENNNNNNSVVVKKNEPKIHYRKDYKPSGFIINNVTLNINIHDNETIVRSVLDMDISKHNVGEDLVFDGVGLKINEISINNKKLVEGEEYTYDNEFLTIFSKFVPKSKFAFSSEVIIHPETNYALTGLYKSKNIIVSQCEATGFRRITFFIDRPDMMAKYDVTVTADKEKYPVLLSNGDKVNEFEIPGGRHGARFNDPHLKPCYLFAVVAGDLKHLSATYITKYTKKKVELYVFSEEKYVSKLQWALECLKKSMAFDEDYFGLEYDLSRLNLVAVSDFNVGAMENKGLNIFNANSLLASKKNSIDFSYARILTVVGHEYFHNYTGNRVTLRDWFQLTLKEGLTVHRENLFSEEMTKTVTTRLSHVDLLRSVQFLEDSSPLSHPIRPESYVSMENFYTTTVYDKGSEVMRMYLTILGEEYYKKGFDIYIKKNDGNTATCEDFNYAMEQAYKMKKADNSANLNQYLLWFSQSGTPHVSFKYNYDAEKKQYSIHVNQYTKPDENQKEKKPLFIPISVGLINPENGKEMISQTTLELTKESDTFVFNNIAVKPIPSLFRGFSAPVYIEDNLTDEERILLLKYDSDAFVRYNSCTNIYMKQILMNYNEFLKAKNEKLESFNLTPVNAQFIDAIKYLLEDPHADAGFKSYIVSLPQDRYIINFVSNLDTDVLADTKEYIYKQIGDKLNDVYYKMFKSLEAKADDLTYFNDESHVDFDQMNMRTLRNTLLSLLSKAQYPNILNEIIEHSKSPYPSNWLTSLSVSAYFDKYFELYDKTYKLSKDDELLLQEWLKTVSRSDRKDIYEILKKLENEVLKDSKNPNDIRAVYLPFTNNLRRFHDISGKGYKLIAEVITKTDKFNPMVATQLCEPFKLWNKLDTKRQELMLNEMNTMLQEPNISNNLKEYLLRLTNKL
Text: as §1, §2, §3

[1] = system: PfA-M1 and PfA-M17 (total aminopeptidase activity); assay: Total aminopeptidase activity in the presence of 1 mM compound (fluorigenic substrate L-leucyl-7-amido-4-methylcoumarin); assay type: biochemical, Plasmodium falciparum; conditions: no compound control = 100% activity
Text: as §1
The top 12 hits identified in the virtual screen were evaluated for their ability to inhibit both PfA-M1 and PfA-M17 in vitro. We initially tested the total aminopeptidase activity (as reported by the fluorigenic substrate L-leucyl-7-amido-4-methylcoumarin) in the presence of 1 mM compound (Fig 3). In this screen, the “no compound” control was considered 100% activity and bestatin was included as an indicator/control for inhibition. From the results obtained, only compounds 4 (ZINC ID: 25108749) and 12 (ZINC ID: 4090432) were able to inhibit the activity of the enzymes to > 50%. […] The two inhibitory compounds were further analyzed to identify their effects on the individual aminopeptidases. To do this, we performed dose-response assays for each inhibitor with each enzyme, and then determined a K i via Dixon plots (Fig 4). […]

Ki PfA-M17 (PfA-M17)	Ki PfA-M1 (PfA-M1)	Ki (PfA-M17)	Ki (PfA-M1)	inhibition of total aminopeptidase activity [1]	SMILES
n.i.	n.i.	–	–	–	O=C(O)CCP(=O)(O)CN1CCCCC1 [Compound 8]
n.i.	n.i.	–	–	–	O=C(O)C(CC1CCCO1)P(=O)(O)CN1CCCC1=O (stereo not shown) [Compound 9]
n.i.	n.i.	–	–	–	CCCN(CCC)CP(=O)(O)CCC(=O)O [Compound 7]
n.i.	n.i.	–	–	–	O=C(O)C(Cc1ccco1)P(=O)(O)CN1CCCCC1 (stereo not shown) [Compound 6]
–	–	700 nM	30000 nM	95%	CC(CP(=O)(O)C(N)c1ccccc1)C(=O)O (stereo not shown) [Compound 4, 3-{[amino(phenyl)methyl](hydroxy)phosphoryl}-methyl propanoic acid]
n.i.	n.i.	–	–	–	CP(=O)(O)CCCCC(N)C(=O)O (stereo not shown) [Compound 1]
n.i.	n.i.	–	–	–	CC(CC(N)C(=O)O)C(=O)O (stereo not shown) [Compound 11]
–	–	17 nM	2300 nM	98%	CC(C)CC(CP(=O)(O)C(N)c1ccccc1)C(=O)O (stereo not shown) [Compound 12]
n.i.	n.i.	–	–	–	NC(=O)NC(CC(=O)O)C(=O)O (stereo not shown) [Compound 10]
n.i.	n.i.	–	–	–	NCP(=O)(O)CC(CCCC(=O)O)C(=O)O (stereo not shown) [Compound 3]
